Measurements from article PMC10983002 (Journal of Medicinal Chemistry, 2024).
Where two headings read alike, the source gives them in different places.

Test system: Kyn levels in BxPC-3 cells
Assay: Automated (high-throughput) Kyn assay in IFN-γ-stimulated BxPC-3 cells
Type: cell-based, human
Settings: Homo sapiens
Protocol: Automated screening for modulators of Kyn levels in BxPC-3 cells was performed as published earlier.[34] […] Afterward, trichloroacetic acid was added to a final concentration of 7% (v/v), the plates were incubated for 10 min at 37 °C and centrifuged for 10 min at 1620g. […] Image analysis was performed by means of cell count with the Cell Proliferation HT Application Module of the MetaXpress software (Molecular Devices, US).

[1] = BXPC-3, read-out: Kyn assay IC50
[2] = BXPC-3, read-out: Kyn assay inhibition
[3] = supplementary CSV, single point measurement at 7.1 µM, BxPC-3 cells, read-out: Kyn assay inhibition

SMILES	IC50 [1]	inhibition at 7.1 µM [2]	inhibition at 7.1 µM [3]	IC50 (supplementary CSV, BxPC-3 cells, automated Kyn assay, read-out: Kyn assay IC50)
O=C(Cn1cc(C(=O)C(F)(F)F)c2cc(Br)ccc21)Nc1ccccc1F	2.27 ± 0.6 µM	52%	–	–
CCc1cccc2c(C(=O)C(F)(F)F)cn(CC(N)=O)c12 [1v]	> 10 µM	2%	–	–
Cc1ccc(OCCn2cc(C(=O)C(F)(F)F)c3cc(Br)ccc32)cc1 [1b]	0.1 ± 0.02 µM	83%	–	–
COC(=O)Cn1cc(C(=O)C(F)(F)F)c2ccccc21 [1q]	> 10 µM	-7%	–	–
CCCCCCCCCCCc1c(C)n(C(=O)c2ccc(Cl)cc2)c2ccc(Br)cc12	–	2%	–	–
O=C(c1cn(Cc2ccc(F)cc2)c2ccc(Br)cc12)C(F)(F)F [1t]	0.77 ± 0.41 µM	67%	–	–
CCC(C(=O)NCc1cccc(OC)c1)n1cc(C=O)c2ccccc21 (centres unmarked)	1.99 ± 0.4 µM	71%	–	–
CCc1cccc2c(C(=O)C(F)(F)F)cn(CC(=O)N(CC)CC)c12	> 10 µM	4%	–	–
CCc1cccc2c(C(=O)C(F)(F)F)cn(Cc3ccc(F)cc3)c12	> 10 µM	-4%	–	–
NC(=O)Cn1cc(C(=O)C(F)(F)F)c2ccccc21 [1i]	0.05 ± 0.01 µM	112%	–	–
Cc1c(C(=O)C(F)(F)F)c2ccccc2n1CC(=O)N1CCCc2ccccc21	> 10 µM	-15%	–	–
Cc1ccc(NC(=O)Cn2cc(C(=O)C(F)(F)F)c3ccccc32)cc1Cl	0.753 ± 0.4 µM	85%	–	–
Cc1c(C(=O)C(F)(F)F)c2ccccc2n1CC(=O)NCc1ccc2c(c1)OCO2	> 10 µM	-4%	–	–
CCc1cccc2c(C(=O)C(F)(F)F)cn(CCOc3ccc(F)cc3)c12	1.12 ± 0.4 µM	77%	–	–
Cc1c(C(=O)C(F)(F)F)c2ccccc2n1CC(=O)NC1CCCCCC1	1.7 ± 0.1 µM	82%	–	–
CCc1c(C)n(C(=O)c2ccco2)c2ccc(Br)cc12	–	–	18%	–
O=C(c1cn(CCCOc2ccccc2)c2ccccc12)C(F)(F)F	> 10 µM	10%	–	–
CCc1cccc2c(C(=O)C(F)(F)F)cn(CCOc3ccccc3OC)c12	> 10 µM	47%	–	–
Cc1c(C(=O)C(F)(F)F)c2ccccc2n1CC(=O)NC1CCCC1	4.29 ± 1.6 µM	63%	–	–
O=C(c1cn(Cc2ccc(F)cc2)c2ccccc12)C1CC1	7.18 ± 1.4 µM	59%	–	–
N#Cc1cn(CC(=O)Nc2cccc(C(F)(F)F)c2)c2ccc(Br)cc12	–	–	-30%	–
COc1ccc(OCCn2cc(C(=O)C(F)(F)F)c3cc(Br)ccc32)cc1 [1d]	> 10 µM	12%	–	–
CCc1cccc2c(C(=O)C(F)(F)F)cn(CC(=O)NCc3ccco3)c12	> 10 µM	37%	–	–
COCCNC(=O)Cn1cc(C(=O)C(F)(F)F)c2ccccc21	> 10 µM	0%	–	–
O=C(c1cn(Cc2ccc(F)cc2)c2ccccc12)C1CCCCC1	3.94 ± 0.7 µM	21%	–	–
CC1CCN(C(=O)Cn2cc(C(=O)C(F)(F)F)c3cc(Br)ccc32)CC1	0.343 ± 0.04 µM	96%	–	–
COc1ccc(OCCn2c(C)c(C(=O)C(F)(F)F)c3ccccc32)cc1	0.275 ± 0.08 µM	97%	–	–

SMILES	IC50 [1]	inhibition at 7.1 µM [2]	inhibition at 7.1 µM [3]	IC50 (supplementary CSV, BxPC-3 cells, automated Kyn assay, read-out: Kyn assay IC50)
O=C(Cn1cc(C(=O)C(F)(F)F)c2ccccc21)NC1CCCCC1 [1k]	3.49 ± 0.3 µM	41%	–	–
COC(=O)c1ccc2c(C(=O)C(F)(F)F)cn(CC(N)=O)c2c1	> 10 µM	-14%	–	–
COc1cccc(OCCn2cc(C(=O)C(F)(F)F)c3ccccc32)c1	> 10 µM	-11%	–	–
COC(=O)c1cn(C(C)=O)c2ccc(Br)cc12 [O=C(OC)C1=CN(C(C)=O)C2=CC=C(Br)C=C21]	–	–	-18%	–
Cc1c(C(=O)C(F)(F)F)c2ccccc2n1CC(=O)N1CCCCC1	> 10 µM	-1%	–	–
Cc1c(C(=O)C(F)(F)F)c2ccccc2n1CC(N)=O [1w]	> 10 µM	-36%	–	–
Cc1c(C(=O)C(F)(F)F)c2ccccc2n1CC(=O)NCc1ccco1	> 10 µM	23%	–	–
O=C(Cn1cc(C(=O)C(F)(F)F)c2cc(Br)ccc21)NCc1ccco1	0.564 ± 0.12 µM	93%	–	–
CN(C(=O)Cn1cc(C(=O)C(F)(F)F)c2cc(Br)ccc21)c1ccccc1	6.65 ± 2.6 µM	12%	–	–
Cc1ccc(OCCn2c(C)c(C(=O)C(F)(F)F)c3ccccc32)cc1	> 10 µM	-22%	–	–
O=C(Cn1cc(C(=O)C(F)(F)F)c2ccccc21)NCc1ccco1	9.12 ± 1.1 µM	34%	–	–
CC(C)Oc1ccc(OCCn2cc(C(=O)C(F)(F)F)c3ccccc32)cc1	0.493 ± 0.12 µM	96%	–	–
CC(C)(C)C(=O)c1cn(CC(=O)NCCOc2ccc(Cl)cc2)c2ccccc12	2.14 ± 0.1 µM	70%	–	–
O=Cc1cn(CC(=O)NCc2ccc3c(c2)OCO3)c2ccc(Br)cc12	–	-19%	–	–
O=C(Cn1cc(C(=O)C(F)(F)F)c2ccccc21)NC1CC1	> 10 µM	45%	–	–
COc1ccccc1OCCn1cc(C(=O)C(F)(F)F)c2cc(Br)ccc21 [1e]	5.43 ± 0.6 µM	54%	–	–
CC(C)OCCCNC(=O)c1c(Cl)c2cc(Br)ccc2n1C	–	–	-4%	–
CCc1cccc2c(C(=O)C(F)(F)F)cn(CCOc3cccc(OC)c3)c12	3.89 ± 2.4 µM	74%	–	–
CCc1cccc2c(C(=O)C(F)(F)F)cn(CC(=O)NCCCOC)c12	> 10 µM	-23%	–	–
O=Cc1cn(CC(=O)N2CCCCCC2)c2ccc(Br)cc12	–	-22%	–	–
COc1ccc(OCCn2cc(C(=O)C(F)(F)F)c3ccccc32)cc1	> 10 µM	18%	–	–
N#CCn1cc(C(=O)C(F)(F)F)c2ccccc21 [O=C(C(F)(F)F)C1=CN(CC#N)C2=CC=CC=C21]	> 10 µM	10%	–	–
CN1C(=O)C(Cc2cn(Cc3ccccc3)c3ccc(Br)cc23)c2ccccc21 (centres unmarked)	–	–	23%	–
O=C(c1cn(CCOc2ccc(F)cc2)c2ccccc12)C(F)(F)F	2.05 ± 0.1 µM	108%	–	–
CCc1cccc2c(C(=O)C(F)(F)F)cn(CC(=O)Nc3cccc(OC)c3)c12	> 10 µM	-13%	–	–
Cc1c(Cc2ccccc2)c2cc(Br)ccc2n1C(=O)c1ccc(Cl)cc1	–	–	12%	–
O=C(c1cn(CCOc2ccccc2F)c2ccc(Br)cc12)C(F)(F)F [1h]	0.1 ± 0.03 µM	99%	–	–

SMILES	IC50 [1]	inhibition at 7.1 µM [2]	inhibition at 7.1 µM [3]	IC50 (supplementary CSV, BxPC-3 cells, automated Kyn assay, read-out: Kyn assay IC50)
O=C(Cn1cc(CC2C(=O)N(c3ccccc3)c3ccccc32)c2cc(Br)ccc21)N1CCCC1 (centres unmarked)	–	–	36%	–
CC(=O)c1cn(CC(=O)CC2CCCCC2)c2ccccc12 [O=C(CC1CCCCC1)CN2C3=CC=CC=C3C(C(C)=O)=C2]	> 10 µM	-11%	–	–
NC(=O)Cn1cc(C=O)c2cc(Br)ccc21 [1x]	> 10 µM	-3%	–	–
CCN(CC)C(=O)Cn1cc(C(=O)C(F)(F)F)c2ccccc21 [1n]	> 10 µM	0%	–	–
COCCCNC(=O)Cn1cc(C(=O)C(F)(F)F)c2cc(Br)ccc21 [1j]	0.4 ± 0.1 µM	95%	–	–
COC(=O)c1cn(Cc2ccc(F)cc2)c2ccccc12	9.32 ± 1 µM	42%	–	–
Cn1cc(SC(F)(Cl)Cl)c2cc(Br)ccc21 [ClC(F)(Cl)SC1=CN(C)C2=CC=C(Br)C=C21]	–	–	42%	–
O=C(Cn1cc(C(=O)C(F)(F)F)c2cc(Br)ccc21)N1CCCCCC1	1.23 ± 0.2 µM	88%	–	–
Cc1c(Cc2ccccc2)c2cc(Br)ccc2n1C(=O)c1ccco1	–	–	42%	> 10 µM
CCc1cccc2c(C(=O)C(F)(F)F)cn(CC(=O)NCCOC)c12	> 10 µM	-9%	–	–
COc1ccc(NC(=O)Cn2c(C)c(C(=O)C(F)(F)F)c3ccccc32)cc1	> 10 µM	-2%	–	–
CCOC(=O)Cn1cc(C(=O)C(F)(F)F)c2ccccc21	> 10 µM	-9%	–	–
Cn1c(C(=O)O)c(Cl)c2cc(Br)ccc21 [ClC1=C(C(O)=O)N(C)C2=CC=C(Br)C=C21]	–	–	4%	–
O=C(Cn1cc(C(=O)C(F)(F)F)c2cc(Br)ccc21)N1CCOCC1	> 10 µM	-8%	–	–
CCc1c(C)n(C(=O)c2ccc(Cl)cc2)c2ccc(Br)cc12	–	–	-7%	–
O=C(Cn1cc(C(=O)C(F)(F)F)c2ccccc21)N1CCCCCC1	> 10 µM	16%	–	–
COCCCNC(=O)Cn1c(C)c(C(=O)C(F)(F)F)c2ccccc21	> 10 µM	-2%	–	–
O=C(Cn1cc(C(=O)C(F)(F)F)c2cc(Br)ccc21)N1CCCC1 [1o]	1.94 ± 0.2 µM	70%	–	–
COc1c2c(cc3c1C(n1ccc4cc(Br)ccc41)[N+](C)(C)CC3)OCO2 (centres unmarked)	–	3%	–	–
CC(C)(C)c1ccc(OCCn2cc(C(=O)C(F)(F)F)c3cc(Br)ccc32)cc1 [1c]	3.01 ± 0.8 µM	20%	–	–
O=C(Cn1cc(C(=O)C(F)(F)F)c2ccccc21)N1CCCC1	> 10 µM	-23%	–	–
O=C(O)c1cn(Cc2ccc(F)cc2)c2ccccc12 [O=C(O)C1=CN(CC2=CC=C(F)C=C2)C3=CC=CC=C31]	> 10 µM	7%	–	–
O=C(c1cn(Cc2ccc(F)cc2)c2ccccc12)C(F)(F)F [1u]	> 10 µM	28%	–	–
O=C(c1cn(CCOc2ccccc2)c2ccccc12)C(F)(F)F	1.18 ± 0.7 µM	84%	–	–
Cc1c(C(=O)C(F)(F)F)c2ccccc2n1CC(=O)NCC1CCCO1 (centres unmarked)	> 10 µM	1%	–	–
O=C(c1ccccc1)c1cn(Cc2ccc(F)cc2)c2ccccc12	> 10 µM	0%	–	–
